From US20200157156A1, “GRATELOUPIA CHIANGII-DERIVED LECTIN AND LECTIN GENE CODING FOR THE SAME” (priority 2018, published 2020) come the findings set out here.

Usually EC50 stands for the concentration needed to bring the measured effect to its halfway point.

Counter-ions that a name gives are not always drawn.

In data set [1] the test system is herpes simplex virus 2 (HSV2) (MS). Nature of the data set: Antiviral effect, CPE inhibition / MTT, HSV2. It counts as cell-based. As for the experimental part:
(§1) The antiviral effect was determined through cell viability, and the like using a virus-induced cytopathic effect (CPE) inhibition method and an MTT method.

Data set [2] is described as follows: in vitro. The method, then:
as §1

Data set [3] relates to herpes simplex virus 1 (HSV1) (F). Nature of the data set: Antiviral effect, CPE inhibition / MTT, HSV1. In kind it is cell-based. The method, then: as §1
In data set [4] the test system is GCL. Briefly: Hemagglutination inhibition test (carbohydrate specificity of GCL). It counts as cell-based, Grateloupia chiangii. The note with it: 4 haemagglutination activity units of GCL, equine red blood cells. The method, then: The carbohydrate specificity was determined by means of a hemagglutination inhibition test. Proteins and carbohydrates used for the inhibition test included D-glucose (D-Glc), D-mannose (D-Man), D-galactose (D-Gal), N-acetyl-D-glucosamine (GlcNAc), N-acetyl-D-galactosamine (GalNAc), D-fucose (F-Fuc), fructose (Fru), lactose (Lac), and fetuin. A sample (25 μL) having 4 haemagglutination activity units was mixed with each of the carbohydrates (25 μL), and 25 μL of a mixture was removed from each well. An equivalent amount of a 4% suspension of equine red blood cells was added to, and mixed with the sample. The plate was kept at room temperature for 30 minutes, and then confirmed for inhibitory activities.

Data set [5] concerns GCL. Nature of the data set: Glycan microarray (glycan-300 array) binding to GCL. Also on record: species or system Grateloupia chiangii. To be noted: 50 μg/mL biotinylated lectin; for RFU (Normalized) GCL: Cy3-streptavidin detection. The method, then: A glycan microarray was performed by Ebiogen (Korea). A glycan array kit was purchased from RayBioTech (Norcross, Ga., USA). An array consisting of 300 synthetic glycans printed in quadruplicate on a glass slide was used. Label-based detection was performed according to the manufacturer's protocol. 50 μg/mL of biotinylated lectin was put into wells, and gently shaken for 3 hours or more. The glass slide was washed with 1× washing buffers I and II provided in the kit. The glycan-lectin binding was detected by reacting with Cy3 equivalent dye-conjugated streptavidin at room temperature for an hour. Signals for Cy3 detection were visualized using a microarray laser scanner (Genfix 4100A, Molecular Devices, Sunnyvale, Calif., USA) (excitation at 554 nm, and emission at 568 nm). Data extraction was performed using microarray assay software Genfix. The […] array data was analyzed using RayBioTech (RayBioTech) software.
To determine the carbohydrate specificity, a glycan microarray was carried out using a glycan-300 array kit in which 300 different carbohydrates were immobilized. Referring to FIGS. 6 and 7 and Table 2 below, 18 of the 300 tested carbohydrates produced at least 1,000 positive signals. GCL produced weak binding signals to the monosaccharides, that is, β-Glc-sp, β-Gal-sp, and α-Man-sp. Normalized signal intensities were 2,579, 2,269, and 2,194, respectively. Also, the GCL was able to bind to maltotetraose-β-Sp1 with a signal intensity of 2,705. […] It was that high-mannan structures, that is, Man-α-1,6-(Man-α-1,3-), Man-α-1,6-(GlcNAc-β-1,2-Man-α-1,3-)Man-β-1,4-GlcNAc-β-1, and 4-GlcNAc-Sp5, interacted with the GCL.

Data set [6] deals with fetuin. Nature of the data set: cell-based or functional assay.
A short description of data set [7]: Effect of divalent cations on GCL activity. To be noted: presence of divalent cations (Mg2+ and Ca2+). As for the experimental part: (§2) The thermal stability of GCL was measured at different temperatures (ranging from 20 to 90° C.). The GCL activities were not affected until the temperature reached 30° C. […] FIG. 5 is a graph for analyzing a change in degree of activity of CGL according to divalent cations added.

The test system of data set [8] is equine red blood cells. Nature of the data set: Hemagglutination assay, equine red blood cells. It counts as cell-based, horse. The method, then: (§3) For a hemagglutination assay, horse and sheep blood was purchased (Hanil Comed, Korea). The blood was washed with phosphate buffered saline (PBS, pH 7.3) until a red color of a supernatant disappeared. Each of red blood cells was prepared into a 4% suspension in PBS. The sample was serially diluted in a 96-well U-bottom plate, and a 4% suspension of red blood cells was then added to each well. The sample was kept at room temperature for 30 minutes, and then confirmed for agglutination activities.

The nature of data set [9]: Thermal stability of GCL activity. It counts as physicochemical. As for the experimental part: as §2
The test system of data set [10] is ovine red blood cells. Briefly: Hemagglutination assay, ovine red blood cells. It counts as cell-based, sheep. To be noted: 4% suspension, room temperature, 30 minutes. The method, then:
as §3

The mark [11] stands for this setting: 4% suspension, room temperature, 30 minutes.

For the molecule `Nc1nc2c(ncn2COCCO)c(=O)[nH]1` [Acyclovir], the “Selective index HSV2 (MS)” value in data set [1] is on record as over 35. Also, the EC50 in data set [1] (Human alphaherpesvirus 2, footnote: concentration, μM) was determined as 2.87 µM; in data set [3] (Human alphaherpesvirus 1, footnote: concentration, μM), 0.52 µM. In data set [2], this molecule registered a CC50 of over 100 µg/mL. In addition, the “Selective index HSV1 (F)” value in [3] is given as over 192.

For the molecule `O=C[C@@H](O)[C@@H](O)[C@H](O)[C@H](O)CO` [D-mannose], the “Concentration inhibiting haemagglutination activity of GCL” value in [4] is 125 mM.

Regarding `CN[C@@H]1[C@@H](O)[C@@H](O[C@@H]2[C@@H](O)[C@H](O[C@H]3OC(CN)=CC[C@H]3N)[C@@H](N)C[C@H]2N)OC[C@]1(C)O` [G0056, Sisomicin Sulfate], the “RFU (Normalized) GCL” value in data set [5] is given as 1,583 ± 177 RFU.

Take `O=C(CO)[C@@H](O)[C@H](O)[C@H](O)CO` [fructose]: in data set [4], the “Concentration inhibiting haemagglutination activity of GCL” value stood at 250 mM.

Take D-cellose-β-Sp1 [G0087]: the “RFU (Normalized) GCL” value in data set [5] was 1,165 ± 82 RFU.

Turning to Gal-α-1,4-Gal-β-1,4-Glc-β-Sp [G0018], in [5], the “RFU (Normalized) GCL” value was 1,124 ± 47 RFU.

With Gal-β-1,4-Glc-Sp [H0400], the “RFU (Normalized) GCL” value in data set [5] is given as 1,044 ± 110 RFU.

As for Gal-β-1,4-Glc-β-Sp [G0016], the “RFU (Normalized) GCL” value in data set [5] is given as 1,260 ± 126 RFU.

In the case of Glc-α-1,2-Gal-α-Sp [G0048], the “RFU (Normalized) GCL” value in [5] is 1,173 ± 110 RFU.

Consider Glc-α-1,4-Glc-β-Sp1 [G0076], for which the “RFU (Normalized) GCL” value in data set [5] is given as 1,238 ± 28 RFU.

Molecule “Grateloupia chiangii-derived lectin (GCL)” returned an inhibition of haemagglutination activity of GCL (4 haemagglutination activity units, equine red blood cells) in data set [6] of 195 µg/mL.

As to Maltoheptaose-β-Sp1 [G0083], in data set [5], the “Binding of GCL to glycan” value is reported as “strongly bound” and the “RFU (Normalized) GCL” value was 8,132 ± 1,810 RFU.

For Maltohexaose-β-Sp1 [G0082], in data set [5], the “Binding of GCL to glycan” value was “strongly bound” and the “RFU (Normalized) GCL” value is on record as 7,524 ± 1,976 RFU.

Turning to Maltotetraose-β-Sp1 [G0080], in data set [5], the Normalized signal intensity is reported as 2,705 and the “RFU (Normalized) GCL” value is 2,577 ± 351 RFU.

As for “Man-α-1,6-(Man-α-1,3-)Man-α-1,6-(Gal-β-1,4-GlcNAc-β-1,2-Man-α-1,3-)Man-β-1,4-GlcNAc-β-1,4-GlcNAc-Sp5 [N-011]”, the “RFU (Normalized) GCL” value in data set [5] is 1148 ± 173 RFU.

Take “Man-α-1,6-(Man-α-1,3-)Man-α-1,6-(GlcNAc-β-1,2-Man-α-1,3-)Man-β-1,4-GlcNAc-β-1,4-GlcNAc-Sp5 [N-010]”: the “RFU (Normalized) GCL” value in data set [5] is recorded as 1142 ± 116 RFU.

With “Man-α-1,6-(Man-α-1,3-)Man-α-1,6-[Gal-β-1,4-(Fuc-α-1,3-)GlcNAc-β-1,2-Man-α-1,3-]Man-β-1,4-GlcNAc-β-1,4-GlcNAc-Sp5 [N-014]”, the “RFU (Normalized) GCL” value in [5] turned out to be 1129 ± 151 RFU.

On to dextran sulfate 8000, for which the “Antiviral activity (EC50) HSV2 (MS)” value in [1] amounted to 4.52 µg/mL. Besides, in data set [3], the “Antiviral activity (EC50) HSV1 (F)” value worked out at 15.54 µg/mL.

On to “pentosan polysulfate [Penosan polysulfate]”, for which, in data set [1], the “Antiviral activity (EC50) HSV2 (MS)” value was 2.10 µg/mL. Further, the “Toxicity CC50” value in data set [2] is over 100 µg/mL. For the same molecule, in data set [3], the “Antiviral activity (EC50) HSV1 (F)” value is 4.77 µg/mL.

As to α-Man-Sp [G0003], in data set [5], the Normalized signal intensity is listed as 2,194 and the “RFU (Normalized) GCL” value is on record as 2,093 ± 294 RFU.

Turning to β-Gal-Sp [G0002], in data set [5], the Normalized signal intensity is reported as 2,269 and the “RFU (Normalized) GCL” value is recorded as 2,165 ± 237 RFU.

As to β-Glc-Sp [G0001], in [5], the Normalized signal intensity was 2,579 and the “RFU (Normalized) GCL” value is 2,273 ± 544 RFU.

Turning to β-GlcNAc-Sp [G0006], the “RFU (Normalized) GCL” value in data set [5] was 1,104 ± 133 RFU.

B1: GCL: lectin protein purified from red alga Grateloupia chiangii by D-mannose affinity chromatography, SEQ ID NO: 1, about 25 kDa (protein)
chain: MVVSNRLVSGESLHRGQHIISSDQHFMLVHQYDGNVVLYDVAGSGSGKPLWSTNTYGSHTTVFKMQEDSNLVLYATGGKPIWASDTHGSGGRFLEMQNDGNLVVYTDVGKPKWASDTHQGIAPRSEISVNQVLRIREGLHSANKRNELILQNDGNLVLSKNGSTAWSSGTAGTGANVLVLQIDGNLVLYNDTKSVWASGSMNKGGRTAVMQDDGNFVLYAEGGKPVWATNT
modifications: GLC
Consider B1, for which, in data set [7], the “Change in activity by divalent cations” value is “not highly affected”. Besides, in data set [8] (setting [11]), the “Agglutination of equine red blood cells” value is on record as “agglutinated” and the “Minimal concentration for agglutination of equine red blood cells” value is 0.8 µg/mL. The “Specific activity (Titer/mg)” value in data set [8] (hemagglutination titer per mg protein) was 51,200 Titer/mg. For the same molecule, the “Total activity (Titer)” value in data set [8] (hemagglutination titer, purification step from 30 g sample) was 33,280 Titer. Also, in data set [1], the “Antiviral activity (EC50) HSV2 (MS)” value stood at 0.036 µg/mL. The “GCL activity according to temperature” value in data set [9] (at 40° C.) is listed as “Half of the activities were lost”. The Initial activities maintained result in data set [9] (heated at 90° C. for 30 minutes) is “approximately 15%”. Further, in data set [9] (until the temperature reached 30° C.), the “GCL activity according to temperature” value is “not affected”. Also, the “Toxicity CC50” value in data set [2] was over 5 µg/mL. Further, the “Antiviral activity (EC50) HSV1 (F)” value in data set [3] came to 0.18 µg/mL. The “Agglutination of ovine red blood cells” value in data set [10] was “did not agglutinate”.

B2: fetuin (protein, UniProt P12763 19-359, looked up)
Alpha-2-HS-glycoprotein: IPLDPVAGYKEPACDDPDTEQAALAAVDYINKHLPRGYKHTLNQIDSVKVWPRRPTGEVYDIEIDTLETTCHVLDPTPLANCSVRQQTQHAVEGDCDIHVLKQDGQFSVLFTKCDSSPDSAEDVRKLCPDCPLLAPLNDSRVVHAVEVALATFNAESNGSYLQLVEISRAQFVPLPVSVSVEFAVAATDCIAKEVVDPTKCNLLAEKQYGFCKGSVIQKALGGEDVRVTCTLFQTQPVIPQPQPDGAEAEAPSAVPDAAGPTPSAAGPPVASVVVGPSVVAVPLPLHRAHYDLRHTFSGVASVESSSGEAFHVGKTPIVGQPSIPGGPVRLCPGRIRYFKI
With B2, in [4], the “Concentration inhibiting haemagglutination activity of GCL” value is 195 µg/mL.
